Test results from patent US8637684B2, “Tautomycetin and tautomycetin analog biosynthesis” (Wisconsin Alumni Research Foundation, priority 2010, dated 2014).

Test system: hematopoietic progenitors (MIEG3, wild-type SHP2, SHP2/E76K)
Assay: Methylcellulose-based colony assay of transduced bone marrow LDMNCs (CFU-M / CFU-GM)
Assay type: cell-based
Settings: 2 μM TTN, GM-CSF 1 ng/mL, 7 days
Method: Transduced, EGFP+ cells were subjected to ^3H-thymidine incorporation assays, as previously described (Munugalavadla et al., 2007), or plated at a concentration of 8000 cells/mL in 0.9% methylcellulose-based media containing IMDM, 2 mM glutamine, 1% penicillin/streptomycin, 80 μM β-mercaptoethanol, 30% FBS, and GM-CSF 1 ng/mL or with saturating concentrations of growth factors including IL-3 200 U/mL, erythropoietin 4 U/mL, and stem cell factor (SCF) 100 ng/mL. All growth factors were from Peprotech. Cultures were incubated in a humidified incubator at 37° C. in 5% CO2 for 7 days and were scored for total colonies and for morphology to determine colony forming unit (CFU)-granulocyte-macrophage (GM) or CFU-monocyte (M).
For biochemical studies, macrophage progenitor cells expressing empty vector (MIEG3), wild-type SHP2, or SHP2/E76K were serum- and growth factor-deprived for 24 hours. Cells were pre-treated with DMSO or 2 μM TTN for 2 hours, and then cultures either remained unstimulated or were stimulated with GM-CSF at 50 ng/mL for 60 minutes. […] To provide further evidence that SHP2 is a molecular target of TTN, the inventors determined the X-ray crystal structure of SHP2 in complex with TTN D-1, as crystallization attempts for the SHP2-TTN complex were unsuccessful. […]

tautomycetin [TTN] was tested, and the “development of CFU-M” value was “reduced in all cells types”.
